Data from the C3SDB collision cross section collection.

Conditions: [M+H]+; instrument: TW; Major Mix IMS/Tof Calibration Kit (Waters)

Row | Compound | collision cross section (N2) [Å²]
1 | CNCCC(Oc1ccc(C(F)(F)F)cc1)c1ccccc1 (stereo not drawn) [Fluoxetine] | 176.5
2 | CC(C)(C)NCC(O)c1ccc(O)c(CO)c1 (stereo not drawn) [Salbutamol] | 160
3 | CCCC(NC)C(=O)c1ccccc1 (stereo not drawn) [Pentedrone] | 145.7
4 | COc1ccc([C@@H]2Sc3ccccc3N(CCN(C)C)C(=O)[C@@H]2OC(C)=O)cc1 [Diltiazem] | 197.8
5 | O=c1[nH]ccn1CCN1CCC(c2cn(-c3ccc(F)cc3)c3ccc(Cl)cc23)CC1 [Sertindol-M dehydro] | 213.8
6 | COc1ccc2c(c1OC)C(=O)O[C@@H]2[C@H]1c2c(cc3c(c2OC)OCO3)CCN1C [Noscapine] | 194.3
7 | CC(C)NCC(O)COc1ccc(COCCOC(C)C)cc1 (stereo not drawn) [Bisoprolol] | 192.2
8 | CCN(CC)C(=O)[C@@H]1C=C2c3cccc4[nH]cc(c34)C[C@H]2N(C)C1 [LSD] | 179.5
9 | CN(C)CCc1c[nH]c2ccccc12 ["NN-Dimethyltryptamine"] | 143.5
10 | CC(CN(C)C)CN1c2ccccc2CCc2ccccc21 (stereo not drawn) [Trimipramine] | 171.2
11 | COc1cc2nc(N(C)CCCNC(=O)C3CCCO3)nc(N)c2cc1OC (stereo not drawn) [Alfuzosin] | 194.6
12 | OC(CCN1CCCC1)(c1ccccc1)C1CCCCC1 (stereo not drawn) [Procyclidine] | 172.6
13 | C[C@]12CC[C@H]3[C@@H](CCC4=CC(=O)CC[C@@H]43)[C@@H]1CC[C@@H]2O [Nandrolone] | 167.5
14 | Clc1ccc2c(c1)N=C(N1CCNCC1)c1ccccc1N2 [Clozapine-M nor] | 173.8
15 | Cc1ccc(/C(=C\CN2CCCC2)c2cccc(/C=C/C(=O)O)n2)cc1 [Acrivastine] | 193.9
16 | c1ccc2c(c1)Cc1cccnc1N1CCNCC21 (stereo not drawn) [Mirtazapine-M N-desmethyl] | 156.9
17 | C=CCN1CC[C@]23c4c5ccc(O)c4O[C@H]2C(=O)CC[C@@]3(O)[C@H]1C5 [Naloxone] | 171.8
18 | C=C[C@H]1C[N@@]2CC[C@H]1C[C@@H]2[C@@H](O)c1ccnc2ccc(OC)cc12 [Quinidine] | 175.8
19 | Cc1cc(=O)n(-c2ccccc2)n1C [Phenazone] | 137.7
20 | CN(C)CC(c1ccc(O)cc1)C1(O)CCCCC1 (stereo not drawn) [Desvenlafaxine] | 166.7
21 | CCCNCC(O)COc1ccccc1C(=O)CCc1ccccc1 (stereo not drawn) [Propafenone] | 178.5
22 | Cc1ccccc1-n1c(C)nc2ccccc2c1=O [Methaqualone] | 155
23 | CNC[C@@H](C)CN1c2ccccc2Sc2ccc(OC)cc21 [Levomepromazine-M N-desmethyl] | 174.3

Row | Compound | collision cross section (N2) [Å²]
24 | CCCCc1nc(Cl)c(CO)n1Cc1ccc(-c2ccccc2-c2nn[nH]n2)cc1 [Losartan] | 200.3
25 | COc1cc(CCN)c(OC)cc1I [2C-I] | 157.7
26 | CN(C)CC/C=C1/c2ccccc2Sc2ccc(Cl)cc21 [Chlorprothixene] | 170.1
27 | COc1ccc(CCNCCCC(C#N)(c2ccc(OC)c(OC)c2)C(C)C)cc1OC (stereo not drawn) [Verapamil-M nor] | 207.3
28 | Cc1ccc2nc(-c3ccc(C(=O)O)cc3)c(CC(=O)N(C)C)n2c1 [Zolpidem-M Carboxylic acid] | 184.4
29 | COc1ccc(CC(C)NCC(O)c2ccc(O)c(NC=O)c2)cc1 (stereo not drawn) [Formoterol] | 178.6
30 | Clc1ccc2c(c1)C(N1CCNCC1)=Nc1ccccc1O2 [Amoxapine] | 170.2
31 | CCOC(=O)c1ncn2c1CN(C)C(=O)c1cc(F)ccc1-2 [Flumazenil] | 165.8
32 | CN(C)CCCN1c2ccccc2Sc2ccccc21 [Promazine] | 161.5
33 | OC(Cn1cncn1)(Cn1cncn1)c1ccc(F)cc1F [Fluconazole] | 163.9
34 | CCC(Br)(CC)C(=O)NC(N)=O [Carbromal] | 139.8
35 | CN1[C@@H]2CC[C@H]1C[C@@H](OC(c1ccccc1)c1ccccc1)C2 [Benztropine] | 180.8
36 | CCN(CC)CCCC(C)Nc1ccnc2cc(Cl)ccc12 (stereo not drawn) [Chloroquine] | 176.8
37 | CCN1CC(CCN2CCOCC2)C(c2ccccc2)(c2ccccc2)C1=O (stereo not drawn) [Doxapram] | 183.4
38 | CCN(CC)CC(=O)Nc1c(C)cccc1C [Lidocaine] | 157.7
39 | COc1ccc(N2CCNCC2)cc1 [N-(p-Methoxyphenyl)piperazine (pMeOPP)] | 141.9
40 | CN1[C@@H]2C[C@@H](OC(=O)[C@H](CO)c3ccccc3)C[C@H]1[C@@H]1O[C@@H]12 [Scopolamine] | 171.1
41 | CN(C)CCCN1c2ccccc2CCc2ccccc21 [Imipramine] | 166.5
42 | O=C(NCC1CCCCN1)c1cc(OCC(F)(F)F)ccc1OCC(F)(F)F (stereo not drawn) [Flecainide] | 192.2
43 | CN1CCN(C(=O)OC2c3nccnc3C(=O)N2c2ccc(Cl)cn2)CC1 (stereo not drawn) [Zopiclone] | 188.5
44 | CN(C)CC/C=C1\c2ccccc2CC(O)c2ccccc21 (stereo not drawn) [Amitriptylin-M (E)-10-hydroxy] | 167.6
45 | CCCCc1oc2ccccc2c1C(=O)c1cc(I)c(OCCN(CC)CC)c(I)c1 [Amiodarone] | 226.4

Conditions: [M+Cs]+; instrument: DT; stepped-field

Row | Compound | collision cross section (N2) [Å²]
46 | CC(=O)N[C@H]1[C@H](O[C@H]2[C@@H](O)[C@@H](CO)O[C@@H](O[C@H]3[C@H](O)[C@@H](O)C(O)O[C@@H]3CO)[C@@H]2O)O[C@H](CO)[C@@H](O)[C@@H]1O[C@@H]1O[C@H](CO)[C@H](O)[C@H](O)[C@H]1O[C@@H]1O[C@@H](C)[C@@H](O)[C@@H](O)[C@@H]1O (stereo partly drawn) [Lacto-N-Fucopentaose I] | 275.6

Same assay, conditions: [M+H-H2O]+; instrument: DT; stepped-field

Row | Compound | collision cross section (N2) [Å²]
47 | OCC1OC(OC2C(CO)OC(OC3C(CO)OC(OC4C(CO)OC(OC5C(CO)OC(O)C(O)C5O)C(O)C4O)C(O)C3O)C(O)C2O)C(O)C(O)C1O (stereo not drawn) [(Hex)5] | 282.3

Same assay, conditions: [M+H]+; instrument: DT; stepped-field

Row | Compound | collision cross section (N2) [Å²]
48 | CC(C)C[C@H](N)C(=O)N[C@@H](Cc1c[nH]c2ccccc12)C(=O)N[C@@H](CO)C(=O)N[C@@H](C)C(=O)N[C@@H](CCCCN)C(=O)O [LWSAK] | 238.6
49 | NCCCC[C@H](NC(=O)[C@H](CC(=O)O)NC(=O)CNC(=O)[C@@H](N)CC(=O)O)C(=O)O [DGDK] | 195.8
50 | CC(C)C[C@H](NC(=O)[C@H](CC(=O)O)NC(=O)[C@H](C)N)C(=O)N[C@@H](C)C(=O)N[C@@H](CCCCN)C(=O)O [ADLAK] | 228.3
51 | CC(C)C[C@H](NC(=O)[C@H](CO)NC(=O)[C@H](C)NC(=O)[C@@H](N)C(C)C)C(=O)N[C@@H](CCCNC(=N)N)C(=O)O [VASLR] | 232.5
52 | NCCCC[C@H](NC(=O)CNC(=O)[C@H](Cc1c[nH]c2ccccc12)NC(=O)[C@@H](N)Cc1ccccc1)C(=O)O [FWGK] | 231
53 | CC(C)C[C@H](NC(=O)[C@H](Cc1ccc(O)cc1)NC(=O)[C@H](C)NC(=O)[C@H](C)NC(=O)[C@@H](N)Cc1ccccc1)C(=O)N[C@@H](CCC(=O)O)C(=O)N[C@@H](CCCNC(=N)N)C(=O)O [FAAYLER] | 295.5

Same assay, conditions: [M+K]+; instrument: DT; stepped-field

Row | Compound | collision cross section (N2) [Å²]
54 | CC(=O)N[C@H]1[C@H](O[C@H]2[C@@H](O)[C@@H](CO)O[C@@H](O[C@H]3[C@H](O)[C@@H](O)C(O)O[C@@H]3CO)[C@@H]2O)O[C@H](CO)[C@@H](O)[C@@H]1O[C@@H]1O[C@H](CO)[C@H](O)[C@H](O)[C@H]1O[C@@H]1O[C@@H](C)[C@@H](O)[C@@H](O)[C@@H]1O (stereo partly drawn) [Lacto-N-Fucopentaose I] | 274.7
55 | CC/C=C\C/C=C\C/C=C\C/C=C\C/C=C\C/C=C\CCC(=O)OC[C@H](COP(=O)([O-])OCC[N+](C)(C)C)OC(=O)CCCCCCC/C=C\CCCCCCC [PC(39:7)] | 303.8
56 | CCCCC/C=C\C/C=C\C/C=C\CCCCCCC(=O)O[C@H](COC(=O)CCCCCCCCCCCC)COP(=O)([O-])OCC[N+](C)(C)C [PC(33:3)] | 290.1
57 | CCCCC/C=C\C/C=C\CCCCCCCC(=O)O[C@H](COC(=O)CCCCCCCCCCCCCCCCCC)COP(=O)(O)OCCN [PE(37:2)] | 289.8

Same assay, conditions: [M+Li]+; instrument: DT; stepped-field

Row | Compound | collision cross section (N2) [Å²]
58 | CC(=O)N[C@H]1[C@H](O[C@H]2[C@@H](O)[C@@H](CO)O[C@@H](O[C@H]3[C@H](O)[C@@H](O)C(O)O[C@@H]3CO)[C@@H]2O)O[C@H](CO)[C@@H](O)[C@@H]1O[C@@H]1O[C@H](CO)[C@H](O)[C@H](O)[C@H]1O[C@@H]1O[C@@H](C)[C@@H](O)[C@@H](O)[C@@H]1O (stereo partly drawn) [Lacto-N-Fucopentaose I] | 269.6

Same assay, conditions: [M+Na-H2O]+; instrument: DT; stepped-field

Row | Compound | collision cross section (N2) [Å²]
59 | OCC1OC(OC2C(CO)OC(OC3C(CO)OC(OC4C(CO)OC(OC5C(CO)OC(O)C(O)C5O)C(O)C4O)C(O)C3O)C(O)C2O)C(O)C(O)C1O (stereo not drawn) [(Hex)5] | 263.1

Same assay, conditions: [M+Na]+; instrument: DT; stepped-field

Row | Compound | collision cross section (N2) [Å²]
60 | CC(=O)N[C@H]1[C@H](O[C@H]2[C@@H](O)[C@@H](CO)O[C@@H](O[C@H]3[C@H](O)[C@@H](O)C(O)O[C@@H]3CO)[C@@H]2O)O[C@H](CO)[C@@H](O)[C@@H]1O[C@@H]1O[C@H](CO)[C@H](O)[C@H](O)[C@H]1O[C@@H]1O[C@@H](C)[C@@H](O)[C@@H](O)[C@@H]1O (stereo partly drawn) [Lacto-N-Fucopentaose I] | 276.1
61 | CC/C=C\C/C=C\C/C=C\C/C=C\C/C=C\C/C=C\CCC(=O)OC[C@H](COP(=O)(O)OCCN)OC(=O)CC/C=C\C/C=C\C/C=C\C/C=C\C/C=C\C/C=C\CC [PE(44:12)] | 299.7
62 | CC/C=C\C/C=C\C/C=C\C/C=C\C/C=C\C/C=C\CCC(=O)O[C@H](COC(=O)CCCCCC/C=C\C/C=C\C/C=C\CCCCC)COP(=O)(O)OC[C@H](N)C(=O)O [PS(42:9)] | 302
63 | CCCCCCCCCCCCC=CC[C@@H](O)[C@H](COP(=O)([O-])OCC[N+](C)(C)C)NC(=O)CC=CCCCCCCCCCCCCCCCCCCCCCC [SM(44:2)] | 313.5
64 | CCCCC/C=C\C/C=C\CCCCCCCC(=O)O[C@H](COC(=O)CCCCCCCCCCCCCCCCCC)COP(=O)(O)OCCN [PE(37:2)] | 288.2
65 | OCC1OC(OC2C(CO)OC(OC3C(CO)OC(OC4C(CO)OC(OC5C(CO)OC(O)C(O)C5O)C(O)C4O)C(O)C3O)C(O)C2O)C(O)C(O)C1O (stereo not drawn) [(Hex)5] | 259.5
66 | CCCCCCCCCCCCC=CC[C@@H](O)[C@H](CO[C@@H]1O[C@H](CO)[C@@H](O)C(O)C1O)NC(=O)CC=CCC=CCCCCCCCCCCCCCCC (stereo partly drawn) [GlcCer(40:3)] | 295.8

Same assay, conditions: [M+Rb]+; instrument: DT; stepped-field

Row | Compound | collision cross section (N2) [Å²]
67 | CC(=O)N[C@H]1[C@H](O[C@H]2[C@@H](O)[C@@H](CO)O[C@@H](O[C@H]3[C@H](O)[C@@H](O)C(O)O[C@@H]3CO)[C@@H]2O)O[C@H](CO)[C@@H](O)[C@@H]1O[C@@H]1O[C@H](CO)[C@H](O)[C@H](O)[C@H]1O[C@@H]1O[C@@H](C)[C@@H](O)[C@@H](O)[C@@H]1O (stereo partly drawn) [Lacto-N-Fucopentaose I] | 275.2

Same assay, conditions: [M]+; instrument: DT; stepped-field

Row | Compound | collision cross section (N2) [Å²]
68 | CCCCCCCCCCCCCCCCCC[N+](CCCCCCCCCCCCCCCCCC)(CCCCCCCCCCCCCCCCCC)CCCCCCCCCCCCCCCCCC [TAA18] | 379
